Laboratory results reported in article PMC5054364, “Neuroprotective pentapeptide CN-105 improves functional and histological outcomes in a murine model of intracerebral hemorrhage” (Scientific Reports, 2016).

Key:
[1] = tested on: murine model of collagenase-induced ICH; test: Histological hemorrhage volume (H&E staining) after ICH; format: in vivo, C57BL/6J mice; details: 0.05 mg/kg i.v. tail vein at 2, 6 and 24 hours post-ICH; saline 7.97 ± 0.97, p = 0.66; mean ± standard error, n = 3/group
Experimental: Experiment 2. Hematoma volume. Hemorrhage volume was assessed by magnetic resonance imaging (MRI) at 2 hours post ICH (before treatment) and 24 hours post ICH. 3 saline- and 3 CN-105-treated animals were perfused at 24 hours post ICH, and brain hematoxylin and eosin (H&E) staining was performed. CN-105 or saline was given by tail vein injection at 2, 6, and 24 hours post-ICH.
(§1) Intrastriatal collagenase injection was used to induce ICH in mice, as previously described. Briefly, the trachea was intubated after anesthesia induction with 4.6% isoflurane, and the lungs were mechanically ventilated with 1.5% isoflurane in a mixture of 30%/70% O2/N2. Rectal temperature was maintained at 37 °C ± 0.2 °C by circulating warm water in an underbody waterbed. The animal’s head was secured in a stereotactic frame, and a midline scalp incision was made. […]
Histological hematoma volume was measured at 24 hours after injury to coincide with maximum hematoma expansion. […] Lesion volume was measured by digitally sampling stained sections with an image analyzer (M2 Turnkey System, Imaging Research, Inc., St. Catharines, Ontario, Canada). Lesion volumes (mm^3) were computed as running sums of lesion area multiplied by the known interval between sections (400 μm) over the extent of the lesion, and expressed as an orthogonal projection.

[2] = tested on: murine model of collagenase-induced ICH; test: Rotarod testing (vestibulomotor function) after ICH; format: in vivo, C57BL/6J mice; details: Days 1–5 after ICH; 0.05 mg/kg i.v. at 4, 8 and 24 hours post ICH; p = 0.0435; n = 14/group
Experimental: Experiment 4. Neurobehavioral assessment. Animals were randomized to vehicle (n = 14) or CN-105 (n = 14) groups, and evaluated for neurobehavioral function (neuroscore), vestibulomotor function (rotarod), and spatial learning (MWM). Mice received tail vein injections of vehicle or CN105 at 4, 8, and 24 hours post ICH.
as §1, with “made. After exposing the skull, a burr hole was created 2.2 mm left lateral to bregma, and a 0.5 μL syringe needle (Hamilton, Reno, NV, USA) was advanced to a depth of 3 mm from cortex. Type IV-S Clostridial collagenase (Sigma, St. Louis, MO, USA) was injected over 2 minutes (0.075 U in 0.4 μL normal saline).” for “made.”
An automated rotarod (Ugo Basile, Comerio, Italy) was used to assess the effects of therapeutic intervention on vestibulomotor function. […] The average time lapse to fall from the rotating cylinder in the second set of trials was recorded as baseline latency. […] Average latency to fall from the rod was recorded.

## Ac-VSRRR-NH2 [CN-105, Ac-VSRRR-amide]
[1]
  hemorrhage volume by H&E staining at 24 hours after ICH: 8.43 ± 0.15 mm^3
[2]
  rotarod motor functional recovery versus vehicle: significantly improved motor functional recovery
